From patent US8445539B2, “Alpha-aminoamide derivatives useful in the treatment of psychiatric disorders” (priority 2007, dated 2013) come the findings set out here.

A word on the IC50: it is the concentration that gives 50% inhibition.

The test system of test [1] is NMDA receptor complex. The experiment in a line: Inhibition of NMDA receptor complex, whole cell patch clamp in cortical neurons. Format: cell-based. To be noted: primary rat cortical neurons; holding -70 mV; NMDA 100 μM + glycine 10 μM; read-out: IC50 of NMDA-induced currents. As for the experimental part:
Cortical neurons were prepared from embryonic Wistar rats (E17-E19). A female rat at date 17-19 of pregnancy was anesthetized and sacrificed. The foetuses (n=4-5) were dissected and placed in ice-cold Hank's solution (Hank's solution (Life tech. 14170-088)+glucose 30%+Pen-Strep 100× (Life Tech. 15140-122) 100 U-100 μg/mL and Hepes-NaOH 5 mM).
The brain of the foetuses was cut in two halves, and each cortex was cut in smaller parts with a scissors, the pieces were transferred to a 15 mL centrifuge tube using a 5 mL pipette and washed twice with Hank's solution. […]
Cells were counted and diluted in Neurobasal medium to a concentration of 400000 cells per poly-D-lysine 5 μg/mL treated Petri dish. […]
Experiments on cortical neurons were carried out using standard whole cell patch clamp methods (Hamill et al., 1981. Pflügers Archly: European Journal of Physiology 391(2):85-100). Membrane currents were recorded and filtered at 5 kHz with an Axon Axopatch 200B amplifier and data digitized with an Axon Digidata 1322A (Axon Instruments, CA, USA). […]
Data were analyzed using Clampfit 9 (Axon Instruments, CA) and Origin 7.5 (Microcal Inc., Northampton, Mass., USA) software. Data points and results were expressed as arithmetic mean±S.E. […]
(The patch-clamp technique gives a direct electrical read-out from membranes.)

The subject of test [2] is anxiety-like behaviour in Open Field. The experiment in a line: Anxiety open field test. It is filed as in vivo. To be noted: open field test in rats. The source says: The Open Field test is commonly used to assess locomotor, exploratory and anxiety-like behaviour in rats or mice. This test is particularly useful in evaluating the effects of anxiolytic and anxiogenic drugs, locomotor responses to drug and as well as behavioural responses to novelty.
The Open Field test task approaches the conflict between the innate fear that rats have of the central area of a novel or brightly lit open field versus their desire to explore new environments. When anxious, the natural tendency of rodents is to prefer staying closed to the walls (thigmotaxis). In this context, anxiety-related behaviour is measured by the degree to which the rat avoids the center of the Open Field test.
The Open Field arena consists of an empty and bright square arena surrounded by walls to prevent animal from escaping. The arena (90 cm×90 cm×40 cm height) was divided into 6×6 grid of equally-sized squares using black tape. […]
The rat is placed in the center of the arena and its behaviour recorded on video over a chosen period (from 5 to 15 min) and scored.
Time spent in each category of square is recorded. In addition, the fifteen minute open-field test is divided into 3 blocks of 5 minutes and total locomotor activity is scored as the number of square entries in each five minute block. […] Finally, the latency to visit the large centre and any one of the four corners is scored manually. […]

For test [3], the system named is marble burying behaviour. In words: Marble Burying test. The following applies: 80 mg/kg po; 30 min before test; CD1 mice; FIG. 1. It is filed as in vivo. An excerpt: The Marble Burying Test is considered an animal model of anxiety/obsessive-compulsive disorder (OCD). Mice which are placed individually in a cage containing a number of glass marbles spontaneously tend to bury the glass marbles present.
Several compounds which attenuate anxiety, depression, psychosis or obsessive-compulsive disorders affect this behaviour reducing the number of marbles buried. Therefore the test has predictive validity for anti-anxiety and anti-OCD potential compounds.
CD1 mice were injected with ralfinamide at the doses of 10, 30, 60 and 80 mg/kg, po; fluoxetine (FLX) at 10 mg/kg, sc or saline and returned to their home cage. After 30 min (ralfinamide) or 60 min (fluoxetine), mice were individually placed in a new cage contained 12 evenly spaced glass marbles. After 30 min mice were removed from the cages and the number of glasses buried for at least two-thirds in the sawdust was counted.
One-way ANOVA followed by Bonferroni's multiple comparison test; n=6-8 mice per group *p<0.05; p***<0.001 versus control group

Regarding `C[C@H](NCc1ccc(OCc2ccccc2F)cc1)C(N)=O` [Ralfinamide methanesulfonate, (S)-(+)-2-[4-(2-fluorobenzyloxy)benzylamino]propanamide], in test [1], the IC50 was 7.3 µM. Also, in test [2], the “Activity in anxiety animal model (Example 6)” value is given as “active”. For the same molecule, in test [3], the “Number of buried marbles” value is listed as “significantly reduces”.
